From patent publication US7175855B1, “Ziprasidone suspension” (Pfizer Inc., priority 1999, dated 2007)

Test: Ability of surfactants to wet ziprasidone HCl monohydrate in water (drug wetting time)
Format: physicochemical
Protocol: Different surfactants were tested for their ability to wet ziprasidone HCl monohydrate in water: sodium lauryl sulfate (SLS), MIGLYOL® (registered trademark of Dynamit Nobel Aktiengesellschaft, Germany) Triglyceride (810), and polysorbate-80. In three separate 100 mL volumes of water, each surfactant listed above was added in an amount to make a 1% solution. MIGLYOL® was added in excess due to its low solubility. While stirring at 200 rpm with an overhead stirrer, to each of the three surfactant solutions was added 1.132 g of ziprasidone […] (equivalent to 10 mgA/ml).

- observed rate of wetting (1% surfactant solution in 100 mL water (MIGLYOL in excess), 1.132 g ziprasidone (10 mgA/ml), stirring at 200 rpm): >20 min
SMILES: CCCCCCCCCCCCOS(=O)(=O)[O-].[Na+] [SLS, sodium lauryl sulfate]
- foaming during wetting (in words) (wetting agents tested with ziprasidone hydrochloride in water): caused foaming before adequate wetting could be obtained
